Patent publication US20210198277A1, “AMINE-SUBSTITUTED ARYL OR HETEROARYL COMPOUNDS” (Epizyme, Inc., priority 2016, published 2021)
Like-named read-outs stand apart in the source and are kept apart here.

How the values were obtained:
human EHMT2 913-1193 = target: T1, human EHMT2 913-1193 (Homo sapiens, UniProt Q96KQ7); experiment: EHMT2 enzyme assay on histone peptide substrate (EHMT2 PEP); assay type: biochemical; conditions: Table II; read-out: EHMT2 PEP (IC50 μM)
T1 construct: recombinant purified human EHMT2 913-1193, Viva; purchased Viva
T1 sequence (Q96KQ7 913-1193): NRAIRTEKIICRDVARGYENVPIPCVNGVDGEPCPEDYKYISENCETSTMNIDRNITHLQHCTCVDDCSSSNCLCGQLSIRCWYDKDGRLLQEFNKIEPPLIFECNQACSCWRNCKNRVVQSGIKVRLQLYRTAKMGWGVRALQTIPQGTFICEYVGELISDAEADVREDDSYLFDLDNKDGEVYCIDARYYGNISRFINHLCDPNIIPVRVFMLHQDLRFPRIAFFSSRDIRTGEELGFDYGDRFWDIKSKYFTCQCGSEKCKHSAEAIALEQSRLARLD
Method in brief: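 Inhibition is measured as reduced tritium incorporation into a biotinylated histone peptide from ^3H-SAM. The enzyme (0.031 nM) sees compound for 30 minutes before a 60-minute room-temperature reaction, which unlabeled SAM quenches prior to streptavidin Flashplate capture.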

EHMT1 = target: T2, EHMT1 (Homo sapiens, UniProt Q9H9B1); experiment: EHMT1 enzyme assay on peptide substrate (EHMT1 PEP); assay type: biochemical; conditions: Table II
T2 sequence (Q9H9B1 1-1298): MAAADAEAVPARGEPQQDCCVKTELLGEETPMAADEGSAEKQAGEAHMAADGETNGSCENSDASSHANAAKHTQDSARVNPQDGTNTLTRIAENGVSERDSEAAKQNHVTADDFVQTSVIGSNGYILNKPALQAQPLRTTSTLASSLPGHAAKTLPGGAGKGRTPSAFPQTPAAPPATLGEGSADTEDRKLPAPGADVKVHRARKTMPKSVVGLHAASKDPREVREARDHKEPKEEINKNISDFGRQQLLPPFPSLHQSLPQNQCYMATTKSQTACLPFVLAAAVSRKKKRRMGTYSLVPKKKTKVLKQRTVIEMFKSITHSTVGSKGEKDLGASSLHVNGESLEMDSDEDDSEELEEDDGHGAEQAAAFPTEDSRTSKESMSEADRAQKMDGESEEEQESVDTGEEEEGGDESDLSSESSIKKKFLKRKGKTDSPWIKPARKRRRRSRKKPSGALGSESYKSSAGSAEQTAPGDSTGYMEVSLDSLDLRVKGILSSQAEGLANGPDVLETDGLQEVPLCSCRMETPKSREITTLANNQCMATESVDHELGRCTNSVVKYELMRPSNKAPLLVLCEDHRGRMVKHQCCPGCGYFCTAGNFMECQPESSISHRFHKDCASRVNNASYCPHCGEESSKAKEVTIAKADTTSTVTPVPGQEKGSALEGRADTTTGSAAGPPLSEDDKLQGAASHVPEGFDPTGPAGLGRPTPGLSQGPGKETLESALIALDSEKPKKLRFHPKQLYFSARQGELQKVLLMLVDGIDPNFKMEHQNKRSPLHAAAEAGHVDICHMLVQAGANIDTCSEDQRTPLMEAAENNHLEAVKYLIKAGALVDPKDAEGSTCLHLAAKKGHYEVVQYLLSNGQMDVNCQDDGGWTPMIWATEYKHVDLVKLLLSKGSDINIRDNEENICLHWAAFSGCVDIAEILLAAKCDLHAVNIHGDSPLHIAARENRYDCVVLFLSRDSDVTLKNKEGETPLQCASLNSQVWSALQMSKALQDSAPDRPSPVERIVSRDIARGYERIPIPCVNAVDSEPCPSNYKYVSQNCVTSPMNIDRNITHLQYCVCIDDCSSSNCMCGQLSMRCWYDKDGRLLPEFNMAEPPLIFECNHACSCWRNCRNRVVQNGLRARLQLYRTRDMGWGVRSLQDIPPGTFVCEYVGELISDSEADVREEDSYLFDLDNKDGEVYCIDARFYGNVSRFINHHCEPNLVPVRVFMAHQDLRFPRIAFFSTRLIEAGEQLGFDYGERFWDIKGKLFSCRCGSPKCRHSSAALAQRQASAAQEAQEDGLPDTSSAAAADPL

| IC50 (human EHMT2 913-1193) [µM] | IC50 (EHMT1; read-out: EHMT1 PEP (IC50 μM)) [µM] | IC50 (EHMT1; EHMT1 PEP (IC50 μM)) [µM] | SMILES |
| --- | --- | --- | --- |
| 0.1 to 1 | 0.1 to 1 |  | COc1ccc(Nc2nccc(NCC3CCNCC3)n2)cc1OCCCN1CCOCC1 [Compound 16, N^2-(4-methoxy-3-(3-morpholinopropoxy)phenyl)-N^4-(piperidin-4-ylmethyl)pyrimidine-2,4-diamine] |
| 0.1 to 1 | 0.1 to 1 |  | COc1ccc(Nc2nccc(NCC3CCNCC3)n2)cc1CCNCC1CCCC1 [Compound 17, N^2-(3-(2-((cyclopentylmethyl)amino)ethyl)-4-methoxyphenyl)-N^4-(piperidin-4-ylmethyl)pyrimidine-2,4-diamine] |
| 0.1 to 1 | 0.1 to 1 |  | COc1ccc(Nc2nccc(NCC3CCN(C(C)=O)CC3)n2)cc1OCC1CCN(C)C1 (stereo not shown) [Compound 18, 1-(4-(((2-((4-methoxy-3-((1-methylpyrrolidin-3-yl)methoxy)phenyl)amino)pyrimidin-4-yl)amino)methyl)piperidin-1-yl)ethan-1-one] |
| < 0.1 | < 0.1 |  | COc1ccc(Nc2nc(C)cc(NCC3CCN(C(C)=O)CC3)n2)cc1OCCCN1CCCC1 [Compound 19, 1-(4-(((2-((4-methoxy-3-(3-(pyrrolidin-1-yl)propoxy)phenyl)amino)-6-methylpyrimidin-4-yl)amino)methyl)piperidin-1-yl)ethan-1-one] |
| < 0.1 | 0.1 to 1 |  | COc1ccc(Nc2nccc(NC(C)C)n2)cc1OCCCN1CCCC1 [Compound 20] |
| < 0.1 | 0.1 to 1 |  | COc1ccc(Nc2nccc(NCc3ccccc3)n2)cc1OCCCN1CCCC1 [Compound 21] |
| < 0.1 | < 0.1 |  | COCCCNc1ccnc(Nc2ccc(OC)c(OCCCN3CCCC3)c2)n1 [Compound 22] |
| 0.1 to 1 | 0.1 to 1 |  | COc1ccc(Nc2nccc(NCc3ccccn3)n2)cc1OCCCN1CCCC1 [Compound 23] |
| < 0.1 | < 0.1 |  | COc1ccc(Nc2nccc(NCc3ccncc3)n2)cc1OCCCN1CCCC1 [Compound 24] |
| < 0.1 | < 0.1 |  | COc1ccc(Nc2nccc(NCc3cccnc3)n2)cc1OCCCN1CCCC1 [Compound 25] |
| < 0.1 | 0.1 to 1 |  | COc1cccc(CNc2ccnc(Nc3ccc(OC)c(OCCCN4CCCC4)c3)n2)c1 [Compound 26] |
| 0.1 to 1 | 0.1 to 1 |  | COCCNc1ccnc(Nc2ccc(OC)c(OCCCN3CCCC3)c2)n1 [Compound 27] |
| < 0.1 | < 0.1 |  | COc1ccc(CNc2ccnc(Nc3ccc(OC)c(OCCCN4CCCC4)c3)n2)cc1 [Compound 28] |
| < 0.1 | < 0.1 |  | COc1ccc(Nc2nccc(NCC3CCN(C(C)C)CC3)n2)cc1OCCCN1CCCC1 [Compound 29] |
| < 0.1 | 0.1 to 1 |  | COc1ccc(Nc2nccc(NCc3cnn(C)c3)n2)cc1OCCCN1CCCC1 [Compound 30] |
| 0.1 to 1 | 0.1 to 1 |  | COc1ccc(Nc2nccc(NCc3nc4ccccc4[nH]3)n2)cc1OCCCN1CCCC1 [Compound 31] |
| < 0.1 | < 0.1 |  | COc1ccc(Nc2nccc(NCC3CCN(C)CC3)n2)cc1OCCCN1CCCC1 [Compound 32] |
| < 0.1 | 0.1 to 1 |  | COc1ccc(Nc2nccc(NCC3CCN(c4ccccc4)CC3)n2)cc1OCCCN1CCCC1 [Compound 33] |
| < 0.1 | 0.1 to 1 |  | COc1ccc(Nc2nccc(NCC3CCCC3)n2)cc1OCCCN1CCCC1 [Compound 34] |
| 0.1 to 1 | 0.1 to 1 |  | COc1ccc(Nc2cccc(NC3CCC3)n2)cc1OCCCN1CCCC1 [Compound 35] |
| < 0.1 | 0.1 to 1 |  | COc1ccccc1CNc1ccnc(Nc2ccc(OC)c(OCCCN3CCCC3)c2)n1 [Compound 36] |
| 0.1 to 1 | 0.1 to 1 |  | COc1ccc(Nc2nccc(NCCc3cccnc3)n2)cc1OCCCN1CCCC1 [Compound 37] |

| IC50 (human EHMT2 913-1193) [µM] | IC50 (EHMT1; read-out: EHMT1 PEP (IC50 μM)) [µM] | IC50 (EHMT1; EHMT1 PEP (IC50 μM)) [µM] | SMILES |
| --- | --- | --- | --- |
| < 0.1 | 0.1 to 1 |  | COc1ccc(Nc2nccc(NCCNC(C)=O)n2)cc1OCCCN1CCCC1 [Compound 38] |
| < 0.1 | < 0.1 |  | COc1ccc(Nc2nccc(NCCc3ccncc3)n2)cc1OCCCN1CCCC1 [Compound 39] |
| 0.1 to 1 | 0.1 to 1 |  | COc1ccc(Nc2nccc(NCCOc3ccccc3)n2)cc1OCCCN1CCCC1 [Compound 40] |
| 0.1 to 1 | 0.1 to 1 |  | CNC(=O)CNc1ccnc(Nc2ccc(OC)c(OCCCN3CCCC3)c2)n1 [Compound 41] |
| 0.1 to 1 | 0.1 to 1 |  | COc1ccc(Nc2nccc(NCC(C)(C)O)n2)cc1OCCCN1CCCC1 [Compound 42] |
| 0.1 to 1 | 0.1 to 1 |  | COc1ccc(Nc2nccc(NCCS(=O)(=O)N(C)C)n2)cc1OCCCN1CCCC1 [Compound 43] |
| 0.1 to 1 | 0.1 to 1 |  | COc1ccc(Nc2nccc(NCCCN(C)C(C)=O)n2)cc1OCCCN1CCCC1 [Compound 44] |
| 0.1 to 1 | 0.1 to 1 |  | COc1ccc(Nc2nccc(NCC3(O)CCCCC3)n2)cc1OCCCN1CCCC1 [Compound 45] |
| < 0.1 | 0.1 to 1 |  | COc1ccc(Nc2nccc(NCc3cc[nH]n3)n2)cc1OCCCN1CCCC1 [Compound 46] |
| < 0.1 | < 0.1 |  | COc1ccc(Nc2nccc(NCC3CCN(C(C)=O)CC3)n2)cc1OCCCN1CCCC1 [Compound 47, 1-(4-(((2-((4-methoxy-3-(3-(pyrrolidin-1-yl)propoxy)phenyl)amino)pyrimidin-4-yl)amino)methyl)piperidin-1-yl)ethan-1-one] |
| 0.1 to 1 | 0.1 to 1 |  | COc1ccc(Nc2nccc(NCC3CCN(C(C)=O)CC3)n2)cc1COCCN1CCCC1 [Compound 48] |
| 0.1 to 1 | 0.1 to 1 |  | COc1ccc(Nc2nccc(NCC3(O)CCOCC3)n2)cc1OCCCN1CCCC1 [Compound 49] |
| 0.1 to 1 | 0.1 to 1 |  | COc1ccc(Nc2nccc(NC3CCCCC3)n2)cc1OCCCN1CCCC1 [Compound 50] |
| < 0.1 |  | < 0.1 | CNc1cc(C)nc(Nc2ccc(OC)c(OCCCN3CCCC3)c2)n1 [Compound 205, N^2-(4-methoxy-3-(3-(pyrrolidin-1-yl)propoxy)phenyl)-N^4,6-dimethylpyrimidine-2,4-diamine] |
| 0.1 to 1 | 0.1 to 1 |  | CNc1cc(Nc2ccc(OC)c(OCCCN3CCCC3)c2)ccn1 [Compound 206] |
| 1 to 10 | 1 to 10 |  | CNc1ccnc(Nc2cccc(OCCCN3CCCC3)c2)n1 [Compound 207, N^4-methyl-N^2-(3-(3-(pyrrolidin-1-yl)propoxy)phenyl)pyrimidine-2,4-diamine] |
| 0.1 to 1 | 0.1 to 1 |  | CNc1nc(C)cc(Nc2ccc(OC)c(OCCCN3CCCC3)c2)n1 [Compound 208] |
| 0.1 to 1 | 0.1 to 1 |  | CNc1ccnc(Nc2ccc(OC)c(OCCCN3CCCC3)c2)c1 [Compound 209, N^2-(4-methoxy-3-(3-(pyrrolidin-1-yl)propoxy)phenyl)-N^4-methylpyridine-2,4-diamine] |
| 1 to 10 | 1 to 10 |  | CNc1ccnc(Nc2ccc(OC)c(OCCCN3CCOCC3)c2)n1 [Compound 210] |
| > 10 | > 10 |  | COc1ccc(Nc2nccc(-n3nc(C)cc3C)n2)cc1OCCCN1CCCC1 [Compound 214] |
| > 10 | > 10 |  | CNCc1cnc(Nc2ccc(OC)c(OCCCN3CCCC3)c2)nc1 [Compound 215] |
| 0.1 to 1 | 0.1 to 1 |  | COc1ccc(Nc2ccnc(NCC3CCN(C(C)=O)CC3)n2)cc1OCCCN1CCCC1 [Compound 216] |
